Experimental data: patent US20220226499A1, “Metabolite Delivery for Modulating Metabolic Pathways of Cells” (Arizona Board of Regents on Behalf of Arizona State …, priority 2019, published 2022)

What was measured:
[1] = tested on: DCs; assay: DC activation and cytokine expression by flow cytometry; format: cell-based, C57BL/6j mice; conditions: for CD86 expression in CD11c+ cells: equivalent amount as PaKG MPs, vs no treatment control and PaKG MP condition
Description: Briefly, femur and tibia from mice were isolated and kept in wash media composed of DMEM/F-12 (1:1) with L-glutamine, 10% fetal bovine and 1% penicillin-streptomycin. The ends of the bones were cut, and bone marrow was flushed out with 10 mL wash media and mixed to make a homogeneous suspension. Red blood cells were lysed by incubating and resuspending the pellet in 3 mL 1× red blood cell (RBC) lysis buffer for 3 minutes at 4° C. The cell suspension was then washed twice with wash media and re-suspended in DMEM/F-12 with L-glutamine, 10% fetal bovine serum, 1% sodium pyruvate, 1% non-essential amino acids (VWR, Radnor, Pa.), 1% penicillin-streptomycin and 20 ng/ml GM-CSF (DC media). All % values shown here are vol/vol. This cell suspension was then seeded in a tissue culture-treated T-75 flask (day 0). After 48 hours (day 2), floating cells were collected, centrifuged, re-suspended in fresh media and seeded on low attachment plates for 6 additional days. Half of the media was changed every alternate day. At the end of 6 days (day 8), cells were lifted from the low attachment wells by gentle pipetting, re-suspended and seeded on tissue culture-treated polystyrene plates for 2 more days before treating them. […] Purity, yield, and immaturity of DCs (CD11c, MHC-II and CD86) were verified via immunofluorescence staining and flow cytometry. Dendritic cells were isolated from at least 3 separate mice for each experiment.

[2] = tested on: DCs; assay: Seahorse Assay (ECAR and OCR)
Description: Lipopolysaccharide (LPS) was used as a positive control, and no treatment was used as a negative control.
Sequential injections were performed with D-glucose (10 mM), oligomycin (1 mM), and 2-deoxyglucose (100 mmol/L). The extracellular acidification rates (ECAR) after the injection of D-glucose was a measure of glycolysis, and the ECAR after the injection of oligomycin represented maximal glycolytic capacity. Non-glycolytic activity was quantified by the measure of ECAR after the injection of 2-deoxyglucose. Samples were analyzed with 10 technical replicates.
For oxidative phosphorylation, 24 hours after cell seeding, media was changed to unbuffered DMEM containing 2 mM glutamine, 1 mM pyruvate, and 10 mM glucose. […] The oxygen consumption rate (OCR) after the injection of oligomycin was a measure of ATP-linked respiration and the OCR after the injection of FCCP represented maximal respiratory capacity. Basal respiration was quantified by the measure of OCR prior to the injection of oligomycin. Samples were analyzed with 10 technical replicates.

Row | Molecule | CD86 expression in CD11c+ cells [1] | glycolysis levels compared to PaKG MPs ([2]; DCs) | glycolysis ([2]; vs no treatment control (PaKG MPs also vs LPS)) | frequency of MHC-II+CD86+ in DCs ([1]; vs untreated immature DCs)
1 | O=C(O)CCC(=O)C(=O)O [soluble aKG, alpha-ketoglutarate] | did not significantly change | higher | decreased | –
2 | Lipopolysaccharide [LPS] | – | – | – | significantly upregulated
3 | OCCCCCCCCCCO [1,10-decanediol] | did not significantly change | – | – | –
